pIC50: −log10 of the molar value. Values belong to the compound of their own block, whether it stands above or below them. Calls of active or inactive are those of the source. The rule behind the calls is not given here.
Tests used:
[1] = Induction of apoptosis in tumor promotion-sensitive mouse JB6 Cl41 cells assessed as viable cells at 5 uM after 24 hrs by Annexin-V-FITC/propidium iodide staining based flow cytometry (reference value: 94.33 +/- 0.87%); format: cell-based; settings: read-out: Activity
[2] = Induction of apoptosis in tumor promotion-sensitive mouse JB6 Cl41 cells assessed as early apoptotic cells at 5 uM after 24 hrs by Annexin-V-FITC/propidium iodide staining based flow cytometry (reference value: 2.15 +/- 1.18%); format: cell-based; settings: jb6 cl41, 24 h
HeLa [3] = assay: Induction of p53-independent apoptosis in human HeLa cells assessed as dead cells at 2.5 uM after 24 hrs by Annexin-V-FITC/propidium iodide double staining based flow cytometry (reference value: 3.89 +/- 0.3%); format: functional
[4] = Induction of apoptosis in tumor promotion-sensitive mouse JB6 Cl41 cells assessed as dead cells at 5 uM after 24 hrs by Annexin-V-FITC/propidium iodide staining based flow cytometry (reference value: 2.99 +/- 0.82%); format: cell-based; settings: jb6 cl41, 24 h
HeLa [5] = assay: Cytotoxicity against human HeLa cells assessed as cell viability after 24 hrs by MTS assay; format: functional, cell-based
[6] = Induction of apoptosis in tumor promotion-sensitive mouse JB6 Cl41 cells assessed as dead cells at 2.5 uM after 24 hrs by Annexin-V-FITC/propidium iodide staining based flow cytometry (reference value: 2.99 +/- 0.82%); format: cell-based; settings: jb6 cl41, 24 h
[7] = Induction of apoptosis in tumor promotion-sensitive mouse JB6 Cl41 cells assessed as late apoptotic/necrotic cells at 2.5 uM after 24 hrs by Annexin-V-FITC/propidium iodide staining based flow cytometry (reference value: 0.53 +/- 0.47%); format: cell-based; settings: jb6 cl41, 24 h
HeLa [8] = assay: Induction of p53-independent apoptosis in human HeLa cells assessed as dead cells at 5 uM after 24 hrs by Annexin-V-FITC/propidium iodide double staining based flow cytometry (reference value: 3.89 +/- 0.3%); format: functional
HeLa [9] = assay: Cytotoxicity against human HeLa cells assessed as cell viability after 48 hrs by MTS assay; format: functional, cell-based
[10] = Cytotoxicity against tumor promotion-sensitive mouse JB6 Cl41 cells assessed as cell viability after 48 hrs by MTS assay; format: cell-based; settings: JB6 Cl41, 48 h
HeLa [11] = assay: Induction of p53-independent apoptosis in human HeLa cells assessed as viable cells at 2.5 uM after 24 hrs by Annexin-V-FITC/propidium iodide double staining based flow cytometry (reference value: 88.52 +/- 11%); format: functional; settings: read-out: Activity
[12] = molecular target: Cellular tumor antigen p53 (Mus musculus) (UniProt P02340); assay: Inhibition of p53-dependent transcriptional activity in tumor promotion-sensitive mouse JB6 Cl41 cells after 12 hrs by luciferase-based method; format: cell-based
Cellular tumor antigen p53 (Mus musculus), sequence (P02340 whole entry): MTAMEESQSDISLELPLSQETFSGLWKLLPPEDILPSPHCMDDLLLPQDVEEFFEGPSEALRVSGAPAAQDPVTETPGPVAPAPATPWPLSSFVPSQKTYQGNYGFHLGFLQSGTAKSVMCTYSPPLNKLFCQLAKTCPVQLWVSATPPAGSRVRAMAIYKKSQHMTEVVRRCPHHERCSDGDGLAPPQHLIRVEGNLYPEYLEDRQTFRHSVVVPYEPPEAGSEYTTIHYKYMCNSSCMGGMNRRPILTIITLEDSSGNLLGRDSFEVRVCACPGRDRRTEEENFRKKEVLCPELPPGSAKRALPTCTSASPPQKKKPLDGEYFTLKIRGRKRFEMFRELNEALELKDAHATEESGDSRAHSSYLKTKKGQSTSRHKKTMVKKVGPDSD

HeLa [13] = assay: Cytotoxicity against human HeLa cells assessed as inhibition of number of colonies formed in soft agar after 14 days by microscopic analysis; format: functional
HeLa [14] = assay: Induction of p53-independent apoptosis in human HeLa cells assessed as viable cells at 5 uM after 24 hrs by Annexin-V-FITC/propidium iodide double staining based flow cytometry (reference value: 88.52 +/- 11%); format: functional; settings: read-out: Activity
HeLa [15] = assay: Induction of p53-independent apoptosis in human HeLa cells assessed as early apoptotic cells at 5 uM after 24 hrs by Annexin-V-FITC/propidium iodide double staining based flow cytometry (reference value: 6.71 +/- 4.41%); format: functional
[16] = Induction of apoptosis in tumor promotion-sensitive mouse JB6 Cl41 cells assessed as late apoptotic/necrotic cells at 5 uM after 24 hrs by Annexin-V-FITC/propidium iodide staining based flow cytometry (reference value: 0.53 +/- 0.47%); format: cell-based; settings: jb6 cl41, 24 h
HeLa [17] = assay: Induction of p53-independent apoptosis in human HeLa cells assessed as early apoptotic cells at 2.5 uM after 24 hrs by Annexin-V-FITC/propidium iodide double staining based flow cytometry (reference value: 6.71 +/- 4.41%); format: functional
HeLa [18] = assay: Induction of p53-independent apoptosis in human HeLa cells assessed as late apoptotic/necrotic cells at 2.5 uM after 24 hrs by Annexin-V-FITC/propidium iodide double staining based flow cytometry (reference value: 0.88 +/- 0.72%); format: functional
[19] = Induction of apoptosis in tumor promotion-sensitive mouse JB6 Cl41 cells assessed as early apoptotic cells at 2.5 uM after 24 hrs by Annexin-V-FITC/propidium iodide staining based flow cytometry (reference value: 2.15 +/- 1.18%); format: cell-based; settings: jb6 cl41, 24 h
HeLa [20] = assay: Ratio of IC50 to INCC50 for human HeLa cells; format: functional
HeLa [21] = assay: Induction of p53-independent apoptosis in human HeLa cells assessed as late apoptotic/necrotic cells at 5 uM after 24 hrs by Annexin-V-FITC/propidium iodide double staining based flow cytometry (reference value: 0.88 +/- 0.72%); format: functional
[22] = Induction of apoptosis in tumor promotion-sensitive mouse JB6 Cl41 cells assessed as viable cells at 2.5 uM after 24 hrs by Annexin-V-FITC/propidium iodide staining based flow cytometry (reference value: 94.33 +/- 0.87%); format: cell-based; settings: read-out: Activity
[23] = Cytotoxicity against tumor promotion-sensitive mouse JB6 Cl41 cells expressing luciferase reporter gene assessed as cell viability after 12 hrs by MTS assay; format: cell-based; settings: jb6 cl41, 12 h

SMILES: CO[C@H]1O[C@H](COC2=CC(=O)c3cccc(O)c3C2=O)[C@@H](O)[C@H](O)[C@H]1O
- viability at 24 h, 5 µM [1]: 21.2%
- Activity [2]: 74.65%
- Activity (HeLa [3]): 8.37%
- Activity [4]: 3.07%
- pIC50 (HeLa [5]): 5.63
- Activity [6]: 2.63%
- Activity [7]: 1.28%
- Activity (HeLa [8]): 24.08%
- pIC50 (HeLa [9]): 5.55
- pIC50 [10]: 5.31
- viability at 2.5 µM (HeLa [11]): 54.8%
- inhibition [12]: Active
- INCC50 (HeLa [13]): 1.47 µM
- viability at 5 µM (HeLa [14]): 24.7%
- Activity (HeLa [15]): 18.51%
- Activity [16]: 1.06%
- Activity (HeLa [17]): 27.57%
- Activity (HeLa [18]): 9.27%
- Activity [19]: 4.81%
- Ratio (HeLa [20]): 1.92
- Activity (HeLa [21]): 32.74%
- viability at 24 h, 2.5 µM [22]: 91.3%

SMILES: COC1=CC(=O)c2cccc(O)c2C1=O
- pIC50 (HeLa [5]): 6.02
- pIC50 (HeLa [9]): 5.98
- pIC50 [10]: 5.83
- inhibition [12]: Active
- INCC50 (HeLa [13]): 0.61 µM
- Ratio (HeLa [20]): 1.7

SMILES: COC1=CC(=O)c2c(O)ccc(O)c2C1=O
- pIC50 (HeLa [5]): 5.74
- pIC50 (HeLa [9]): 5.67
- pIC50 [10]: 5.60
- inhibition [12]: Active
- INCC50 (HeLa [13]): 0.73 µM
- Ratio (HeLa [20]): 2.97

Continued, in another order:

- inhibition [12]: inactive
SMILES: CO[C@H]1O[C@H](CO)[C@@H](O)[C@H](O)[C@H]1O
- Activity [23]: Non-toxic
- pIC50 (HeLa [5]): < 3.70
- pIC50 (HeLa [9]): < 3.70
- pIC50 [10]: < 3.70
- INCC50 (HeLa [13]): >200 µM

- inhibition [12]: Active
SMILES: O=C1C=C(O)C(=O)c2c(O)ccc(O)c21
- pIC50 (HeLa [5]): 4.37
- pIC50 (HeLa [9]): 4.42
- pIC50 [10]: 4.15
- INCC50 (HeLa [13]): 8.06 µM
- Ratio (HeLa [20]): 4.71

Reference: ChEMBL document CHEMBL3232964, “Quinone-carbohydrate nonglucoside conjugates as a new type of cytotoxic agents: synthesis and determination of in vitro activity” (Eur J Med Chem, 2014)
